Results on 26 compounds are retold here after ChEMBL document CHEMBL4480380, “Identification and biological evaluation of novel benzothiazole derivatives bearing a pyridine-semicarbazone moiety as apoptosis inducers via activation of procaspase-3 to caspase-3” (Medchemcomm, 2019).

Data set [1] concerns MCF7. Briefly: Antiproliferative activity against human MCF7 cells after 24 hrs by CCK-8 assay. Type of data set: functional, cell-based. The conditions noted are these: MCF7, 24 h. A general note: Tetrazolium dyes change colour on reduction, which living cells bring about.
Data set [2] concerns U-937. The data set is described as follows: Induction of apoptosis in human U937 cells assessed as caspase-3 activity at 30 uM using Ac-DEVD-AFC as substrate preincubated for 16 hrs followed by substrate addition and measured after 60 mins by fluorescence assay (reference value: 7+/- 1%). Type of data set: functional.
The nature of data set [3]: Selectivity ratio of IC50 for human MCF7 cells to IC50 for human procaspase-3 over-expressing U937 cells. Type of data set: functional.
For data set [4], the system named is U-937. Briefly: Antiproliferative activity against human procaspase-3 over-expressing U937 cells after 24 hrs by CCK-8 assay. Type of data set: functional, cell-based. Conditions: U-937, 24 h.
Data set [5] can be described thus: Intrinsic clearance in human liver microsomes in presence of NADPH by LC-MS analysis. Conditions: read-out: CLH. Type of data set: ADME, Microsome. For orientation: Microsomes from liver hold many membrane-bound enzymes, among them those of drug oxidation.
Data set [6] in a line: Intrinsic clearance in mouse liver microsomes in presence of NADPH by LC-MS analysis. Type of data set: ADME, Microsome. Conditions: read-out: CLH.
Data set [7] is described as follows: Half life in rat liver microsomes in presence of NADPH by LC-MS analysis. It counts as ADME, Microsome.
A short description of data set [8]: Half life in human liver microsomes in presence of NADPH by LC-MS analysis. It counts as ADME, Microsome.
The nature of data set [9]: Half life in mouse liver microsomes in presence of NADPH by LC-MS analysis. It counts as ADME, Microsome.
Data set [10] in a line: Intrinsic clearance in rat liver microsomes in presence of NADPH by LC-MS analysis. It counts as ADME, Microsome. The conditions noted are these: read-out: CLH.
Data set [11] relates to U-937. Briefly: Induction of apoptosis in human U937 cells assessed as late apoptotic cells at 2.6 uM after 24 hrs by Annexin V-FITC/propidium iodide staining-based flow cytometric analysis (reference value: 3.27%). Type of data set: functional. A general note: A flow cytometer gives signals particle by particle.
Data set [12] is filed under the species Danio rerio. Briefly: Induction of apoptosis in zebrafish AB embryos assessed as accumulation of dying cells in head at 40 to 60 uM after 24 hrs post fertilization by acridine orange staining-based fluorescence microscopic analysis. Type of data set: functional, organism-based.
Data set [13] relates to U-937. Briefly: Induction of apoptosis in human U937 cells assessed as late apoptotic cells at 5.2 uM after 48 hrs by Annexin V-FITC/propidium iodide staining-based flow cytometric analysis (reference value: 3.89%). Type of data set: functional.
The test system of data set [14] is U-937. Briefly: Induction of apoptosis in human U937 cells assessed as early apoptotic cells at 5.2 uM after 48 hrs by Annexin V-FITC/propidium iodide staining-based flow cytometric analysis (reference value: 6.16%). It counts as functional.
Data set [15] can be described thus: Toxicity in zebrafish AB embryos at 5 to 20 uM measured at 24 to 72 hrs post fertilization by stereo microscopic analysis. On the set-up: species or system Danio rerio. The conditions noted are these: in vivo.
Data set [16] has as its system U-937. The data set is described as follows: Induction of apoptosis in human U937 cells assessed as late apoptotic cells at 2.6 uM after 48 hrs by Annexin V-FITC/propidium iodide staining-based flow cytometric analysis (reference value: 3.89%). It counts as functional.
In data set [17] the target is T1, Caspase-3 (Homo sapiens) (UniProt P42574).
T1 sequence (whole entry): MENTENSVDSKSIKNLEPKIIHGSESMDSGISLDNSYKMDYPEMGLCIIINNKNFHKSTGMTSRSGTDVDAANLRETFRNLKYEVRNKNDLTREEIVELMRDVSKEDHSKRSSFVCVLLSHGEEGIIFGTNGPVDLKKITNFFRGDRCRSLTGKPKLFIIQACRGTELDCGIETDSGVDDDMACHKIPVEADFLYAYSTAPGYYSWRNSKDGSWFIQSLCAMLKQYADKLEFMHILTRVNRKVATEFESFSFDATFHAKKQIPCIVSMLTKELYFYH
The data set is described as follows: Activation of procaspase-3 (unknown origin) at 10 uM using Ac-DEVD-AFC as substrate preincubated for 4 hrs followed by substrate addition and measured after 5 mins by fluorescence assay relative to control.

Data set [18] concerns U-937. The data set is described as follows: Induction of apoptosis in human U937 cells assessed as early apoptotic cells at 5.2 uM after 24 hrs by Annexin V-FITC/propidium iodide staining-based flow cytometric analysis (reference value: 4.88%). Type of data set: functional.
Data set [19] in a line: Toxicity in zebrafish AB embryos assessed as induction of mortality at 40 uM after 72 hrs post fertilization by stereo microscopic analysis. On the set-up: species or system Danio rerio. Conditions: in vivo.
The species entered for data set [20] is Danio rerio. The data set is described as follows: Induction of apoptosis in zebrafish AB embryos assessed as accumulation of dying cells in cranial neural crest at 40 to 60 uM after 24 hrs post fertilization by acridine orange staining-based fluorescence microscopic analysis. It counts as functional, organism-based.
In data set [21] the test system is U-937. The data set is described as follows: Induction of apoptosis in human U937 cells assessed as early apoptotic cells at 2.6 uM after 24 hrs by Annexin V-FITC/propidium iodide staining-based flow cytometric analysis (reference value: 4.88%). It counts as functional.
The subject of data set [22] is U-937. The data set is described as follows: Induction of apoptosis in human U937 cells assessed as early apoptotic cells at 2.6 uM after 48 hrs by Annexin V-FITC/propidium iodide staining-based flow cytometric analysis (reference value: 6.16%). Type of data set: functional.
The species named for data set [23] is Danio rerio. The data set is described as follows: Induction of apoptosis in zebrafish AB embryos assessed as increase in bax mRNA expression at 40 to 60 uM after 24 hrs post fertilization by RT-PCR analysis. Type of data set: functional, organism-based.
Data set [24] deals with U-937. The data set is described as follows: Induction of apoptosis in human U937 cells assessed as late apoptotic cells at 5.2 uM after 24 hrs by Annexin V-FITC/propidium iodide staining-based flow cytometric analysis (reference value: 3.27%). It counts as functional.

Broadly, the IC50 is the point on the concentration scale where inhibition reaches its midpoint. The half-life is the time needed for the level to fall by half in the phase considered.

Calls of active or inactive are those of the source.

In the case of `CN(C)Cc1ccc(NC(=O)NN=C(c2ccccc2)c2ccccc2)cc1`, the IC50 in [1] was 12.1 µM; in data set [4], greater than 25 µM. The Activity in [2] is reported as 28%. Also, in [3], the “Ratio IC50” value is recorded as less than 1.

With `CCN(CC)Cc1ccc(NC(=O)NN=C(c2ccccn2)c2ccccn2)cc1`, the IC50 in [1] and in data set [4] was greater than 40 µM in each case.

As for `CN(C)Cc1ccc(NC(=O)NN=C(c2ccccn2)c2ccccn2)cc1`, the IC50 in data set [1] and in data set [4] was greater than 40 µM each time.

Turning to `CC1CCN(Cc2ccc(NC(=O)NN=C(c3ccccc3)c3ccccc3)cc2)CC1`, the values for the IC50 in [1] and in data set [4] were 13.3 µM and greater than 25 µM, respectively. For the same compound, in [2], the Activity was determined as 58%. In addition, in data set [3], the “Ratio IC50” value is listed as less than 1.

For the compound `C/C(=N\NC(=O)Nc1ccc(CN2CCC(C)CC2)cc1)c1cnccn1`, the half-inhibitory concentration (IC50) in data set [1] and in [4] was greater than 40 µM in each case.

Turning to `CC1CCN(Cc2ccc(NC(=O)NN=C(c3ccccn3)c3ccccn3)cc2)CC1`, the IC50 in data set [1] and in data set [4] was greater than 40 µM each time.

On to `C/C(=N\NC(=O)Nc1nc2ccc(CN(C)C)cc2s1)c1ccccn1`, for which the figures for the IC50 in data set [1] and in data set [4] were greater than 40 µM and 20.1 µM, respectively. Further, the Activity in data set [2] amounted to 68%. Besides, in [3], the “Ratio IC50” value is 2.

Take `C/C(=N\NC(=O)Nc1nc2ccc(CN3CCC(C)CC3)cc2s1)c1ccccc1`: the IC50 in data set [1] and in data set [4] was greater than 40 µM in each case.

Consider `CN(C)Cc1ccc2nc(NC(=O)N/N=C/c3ccccn3)sc2c1`, for which the IC50 was greater than 40 µM in data set [1] and 23.2 µM in [4]. Also, the “Ratio IC50” value in [3] is given as 1.6.

For the compound `O=C(c1ccc(F)cc1)C1CCN(CCn2c(=O)[nH]c3ccccc3c2=O)CC1` [KETANSERIN], the CLint scaled in data set [5] was 48.2 mL/min/kg; in data set [6], 267 mL/min/kg; in data set [10] it was 173 mL/min/kg. Moreover, the half-life in data set [7] worked out at 14.4 min; in data set [8], 36.1 min; in data set [9], 20.5 min.

On to `CC1CCN(Cc2ccc3nc(NC(=O)N/N=C/c4ccccn4)sc3c2)CC1`, for which the IC50 in data set [1] was greater than 40 µM; in data set [4], 21.5 µM. In addition, in data set [3], the “Ratio IC50” value was found to be 1.6.

In the case of `CN(C)Cc1ccc2nc(NC(=O)NN=C(c3ccccn3)c3ccccn3)sc2c1`, the figures for the IC50 in [1] and in data set [4] were greater than 40 µM and 7.8 µM, respectively. The Activity in data set [2] was determined as 104%. In data set [3], the “Ratio IC50” value was 5.1.

Take `C/C(=N\NC(=O)Nc1nc2ccc(CN3CCC(C)CC3)cc2s1)c1cnccn1`: the IC50 in data set [1] is 11.8 µM; in data set [4], greater than 40 µM. For the same compound, the “Ratio IC50” value in [3] was less than 1.

Consider `CCN(CC)Cc1ccc(NC(=O)NN=C(c2ccccc2)c2ccccc2)cc1`, for which the IC50 was 13.1 µM in data set [1] and greater than 25 µM in data set [4]. Further, in data set [2], the Activity came out at 20%. Besides, in data set [3], the “Ratio IC50” value is reported as less than 1.

Consider `CN(C)Cc1ccc(NC(=O)N/N=C/c2ccccn2)cc1`, for which the IC50 in data set [1] and in data set [4] was greater than 40 µM in each case.

As for `CCN(CC)Cc1ccc2nc(NC(=O)NN=C(c3ccccn3)c3ccccn3)sc2c1`, the IC50 in [1] is greater than 40 µM; in [4], 9.1 µM. For the same compound, in [2], the Activity amounted to 119%. In [3], the “Ratio IC50” value was 4.3.

Consider `CCN(CC)Cc1ccc2nc(NC(=O)N/N=C(\C)c3ccccn3)sc2c1`, for which the IC50 in data set [1] is greater than 40 µM; in data set [4], 15.6 µM. Moreover, in data set [3], the “Ratio IC50” value is listed as 2.6.

Consider `CCN(CC)Cc1ccc2nc(NC(=O)N/N=C(\C)c3cnccn3)sc2c1`, for which the IC50 in data set [1] and in data set [4] was greater than 40 µM throughout.

Turning to `C/C(=N\NC(=O)Nc1nc2ccc(CN(C)C)cc2s1)c1cnccn1`, the IC50 in data set [1] and in data set [4] was greater than 40 µM in each case.

In the case of `C=CCc1cccc(/C=N/NC(=O)CN2CCN(Cc3ccccc3)CC2)c1O` [PAC-1], the IC50 in data set [1] was greater than 40 µM; in data set [4], 6 µM. In [2], the Activity is recorded as 100%. In addition, the “Ratio IC50” value in [3] stood at 6.6.

On to `CCN(CC)Cc1ccc(NC(=O)N/N=C(\C)c2ccccn2)cc1`, for which the IC50 in data set [1] and in data set [4] was greater than 40 µM in each case.

Turning to `C/C(=N\NC(=O)Nc1nc2ccc(CN3CCC(C)CC3)cc2s1)c1ccccn1`, the Activity is given as 6.3% in data set [11]; 18.7% in data set [13]; 28.06% in data set [14]; “Non-Toxic” in data set [15]; 99% in data set [2]; 9.17% in data set [16]. The Activity was 77.8% in data set [17]; 19.79% in [18]; “Toxic” in data set [19]; 16.16% in [21]; 19.59% in data set [22]; 8.15% in data set [24]. Also, the result in data set [12], in data set [20] and in [23] was Active. Further, the IC50 in data set [1] came out at 12.4 µM; in data set [4] it was 5.2 µM. For the same compound, the CLint scaled in data set [5] was 22.3 mL/min/kg; in data set [6], 102 mL/min/kg; in data set [10], 26 mL/min/kg. For the same compound, in data set [3], the “Ratio IC50” value was 2.3. Also, the figures for the half-life in [7], in data set [8] and in data set [9] were 95.5 min, 77.9 min and 53.6 min, respectively.

For `C/C(=N\NC(=O)Nc1ccc(CN2CCC(C)CC2)cc1)c1ccccn1`, the IC50 in data set [1] and in data set [4] was greater than 40 µM throughout.

`CCN(CC)Cc1ccc2nc(NC(=O)N/N=C/c3ccccn3)sc2c1`: the 50% inhibitory concentration (IC50) in data set [1] was greater than 40 µM; in [4], 24.8 µM. In addition, the “Ratio IC50” value in [3] is 1.6.

Take `CC1CCN(Cc2ccc(NC(=O)N/N=C/c3ccccn3)cc2)CC1`: the IC50 in data set [1] and in [4] was greater than 40 µM throughout.

With `CCN(CC)Cc1ccc2nc(NC(=O)N/N=C(\C)c3ccc(F)cc3)sc2c1`, the IC50 was 12.3 µM in data set [1] and greater than 40 µM in data set [4]. Also, the Activity in [2] amounted to 40%. Besides, the “Ratio IC50” value in data set [3] is recorded as less than 1.
